This is an account of results in patent EP1268487B1, “TRICYCLIC PROTEIN KINASE INHIBITORS” (Wyeth, priority 2000, dated 2001).

For test [1], the target named is T1, Epidermal Growth Factor Receptor Kinase (EGF-R) (Homo sapiens, UniProt P00533).
T1 construct: containing the EGFR cDNA encoding amino acids 645 - 1186 preceded by Met-Ala-(His)6; Met-Ala-(His)6 (N); made in house; host or cells: Sf9 insect cells (baculovirus vHcEGFR52)
Nature of the test: Inhibition of Epidermal Growth Factor Receptor Kinase (EGF-R) using recombinant enzyme. Type of test: biochemical. Conditions: 0.5 µM concentration of test compound. The method, then:
Representative test compounds were evaluated for their ability to inhibit the phosphorylation of the tyrosine residue of a peptide substrate catalyzed by the enzyme epidermal growth factor receptor kinase. The peptide substrate (RR-SRC) has the sequence arg-arg-leu-ile-glu-asp-ala-glu-tyr-ala-ala-arg-gly. The enzyme used in this assay is the His-tagged cytoplasmic domain of EGFR. A recombinant baculovirus (vHcEGFR52) was constructed containing the EGFR cDNA encoding amino acids 645 - 1186 preceded by Met-Ala-(His)6. Sf9 cells in 100 mm plates were infected at an moi of 10 pfu/cell and cells were harvested 48 hours post infection. A cytoplasmic extract was prepared using 1% Triton X-100 and applied to Ni-NTA column. After washing the column with 20 mM imidazole, HcEGFR was eluted with 250 mM imidazole (in 50 mM Na2HPO4, pH 8.0, 300 mM NaCl). Fractions collected were dialyzed against 10 mM HEPES, pH 7.0, 50 mM NaCl, 10% glycerol, 1µg/mL antipain and leupeptin and 0.1 mM Pefabloc SC. The protein was frozen in dry ice/methanol and stored -70° C.
Test compounds were made into 10 mg/mL stock solutions in 100% dimethylsulfoxide (DMSO). Prior to experiment, stock solutions were diluted to 500 µM with 100% DMSO and then serially diluted to the desired concentration with HEPES buffer (30 mM HEPES pH 7.4).
For the enzyme reaction, 10 µL of each inhibitor (at various concentrations) were added to each well of a 96-well plate. To this was added 3 µL of enzyme (1:10 dilution in 10mM HEPES, pH 7.4 for final conc. of 1:120). This was allowed to sit for 10 minutes on ice and was followed by the addition of 5 µl peptide (80 uM final conc.), 10µl of 4X Buffer (Table A), 0.25 µL ^33P-ATP and 12 µL H2O. The reaction was allowed to run for 90 minutes at room temperature and was followed by spotting the entire volume on to precut P81 filter papers. The filter discs were washed 2X with 0.5% phosphoric acid and radioactivity was measured using a liquid scintillation counter. Table A
The inhibition data for representative compounds of the invention are shown below in TABLE 1. The IC50 is the concentration of test compound needed to reduce the total amount of phosphorylated substrate by 50%. The % inhibition of the test compound was determined for at least three different concentrations and the IC50 value was evaluated from the dose response curve. […] CPM(control) is in units of counts per minute and was a number expressing the amount of radiolabeled ATP (γ-^33P) incorporated into the RR-SRC peptide substrate by the enzyme after 90 minutes at room temperature in the absence of test compound as measured by liquid scintillation counting. The CPM values were corrected for the background counts produced by ATP in the absence of the enzymatic reaction. Where it was possible to determine an IC50 value, this is reported in TABLE 1 otherwise the % inhibition at 0.5 µM concentration of test compound is shown in TABLE 1.

For a further test, the target named is T2, c-Met (Homo sapiens, UniProt P08581).
T2 construct: The cytoplasmic domain of c-Met was generated by reverse transcriptase-polymerase chain reaction; His tag (from pFastBac-HTc vector; purified on Ni-NTA/Talon); made in house; host or cells: Sf9 insect cells (baculovirus)
T2 sequence (P08581 956-1390 limits assumed): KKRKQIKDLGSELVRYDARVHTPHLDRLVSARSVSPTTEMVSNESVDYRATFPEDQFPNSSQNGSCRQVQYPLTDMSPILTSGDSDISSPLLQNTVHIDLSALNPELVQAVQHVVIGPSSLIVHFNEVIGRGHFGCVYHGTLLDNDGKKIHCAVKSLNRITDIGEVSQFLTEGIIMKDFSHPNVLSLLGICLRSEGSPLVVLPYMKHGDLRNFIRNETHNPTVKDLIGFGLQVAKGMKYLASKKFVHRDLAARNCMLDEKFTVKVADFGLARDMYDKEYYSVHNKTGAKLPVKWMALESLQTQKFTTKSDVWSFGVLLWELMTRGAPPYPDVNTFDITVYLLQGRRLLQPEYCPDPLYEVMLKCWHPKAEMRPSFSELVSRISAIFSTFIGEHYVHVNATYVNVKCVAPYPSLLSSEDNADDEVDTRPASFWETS
Nature of the test: DELFIA assay for c-Met receptor kinase inhibitors. The test is classed as biochemical. As for the experimental part:
The c-Met kinase assay was performed as a DELFIA (dissociation enchanced lanthanide fluorometric immunoassay), an ELISA-like protocol based upon time-resolved fluorometry as described previously [Braunwalder, A. F., Yarwood, D.R., Sills, M.A., and Lipson, K.E., Anal. Biochem. 238, 159-164 (1996)]. The protocol was adopted for the screening of inhibitors of the kinase activity of recombinant c-Met. [Loganzo, F., and. Hardy, C., American Biotechnology Laboratory 16(13), 26-28 (1998)]. The cytoplasmic domain of c-Met was generated by reverse transcriptase-polymerase chain reaction using RNA isolated from human mammary epithelial cells as template, cloned into the pFastBac-HTc vector (Life Technologies) and protein expressed in Sf9 insect cells by baculovirus infection. Protein was purified by imidazole elution from Ni-NTA resin (Invitrogen, Carlsbad, CA) or Talon resin (Clontech, Palo Alto, CA). Various conditions were evaluated for the kinase screening protocol and screening was accomplished with the following method. Polystyrene Maxisorp plates (Nunc) were pre-coated for 1 hour to overnight at room temperature with 5 µg/ml poly(Glu4-Tyr) diluted in Tris-buffered saline (TBS). Plates were washed 3X with TBS. c-Met protein preparation was diluted 1:80 into 0.1% BSA/ 4 mM HEPES. A master mix was prepared consisting of: 1 volume of diluted c-Met, 1 volume of 5X buffer (20 mM HEPES, pH 7.4; 2 mM MnCl2; 100 µM Na3VO4; 1 mM DTT), 0.9 volume of water. Master mix (29 µl) was added to the wells of peptide-coated microtiter plates. For assays where c-Met autophosphorylation was evaluated, plates were uncoated and c-Met was diluted into 4 mM HEPES at 1:40 without BSA. Compounds (1 µl) at various dilutions (1 mM to 0.1 µM) prepared in DMSO were added and mixed well with an automatic piptettor. After incubation 20 minutes at room temperature, the reaction was initiated with 20 µl of 62.5 µM ATP/ 50 mM MgCl2 (final 25 µM ATP/ 20 mM MgCl2 in assay). Reactions were incubated 45 minutes at room temperature. Plates were then washed 3X with 100 µl each of DELFIA wash buffer (Wallac). Antibody binding was performed by adding 75 µl of Europium-conjugated anti-phosphotyrosine diluted 1:2000 in Assay Buffer (Wallac) for 1 hour at room temperature. Plates were washed 3X with DELFIA wash buffer. Detection was done by addition of 100 µl of Enhancement Solution (Wallac). After 30 minutes, plates were read in a Wallac VICTOR-2 time-resolved fluorometer. Inhibition data was reported as europium counts for compound treated wells normalized to control counts. IC50 values were obtained by using log doses of compound and calculated using Data Analysis Toolbox software, version 1.0.2 (MDL Information Systems, Inc.).

Another test concerns 3T3. Description: Inhibition of cancer cell growth as measured by cell number (Sulforhodamine B). The test is classed as cell-based. Conditions: Mus musculus, NIH3T3; 48 hours exposure. As for the experimental part:
(§1) Human tumor cell lines were plated in 96-well plates (250 µl/well, 1-6 x 10^4 cells/ml) in RPMI 1640 medium, containing 5% FBS (Fetal Bovine Serum). […] After 48 hours exposure to test compounds, cells were fixed with trichloroacetic acid, and stained with Sulforhodamine B. After washing with trichloroacetic acid, bound dye was solubilized in 10 mM Tris base and optical density was determined using a plate reader. Under conditions of the assay the optical density is proportional to the number of cells in the well. IC50s (concentrations causing 50% inhibition of cell growth) were determined from the growth inhibition plots. The test procedure is described in details by Philip Skehan et. al, J.Natl. Canc. Inst., 82, 1107-1112 (1990). […] Information about some of the cell lines used in these test procedures is available from the American Type Tissue Collection: Cell Lines and Hybridomas, 1994 Reference Guide, 8th Edition. The Her2Neu cell line is a 3T3 line that has been transfected with Her2 receptor kinase.

The subject of another test is A431. Described as above. The note with it: Homo sapiens, A-431; 48 hours exposure. The test is classed as cell-based. As for the experimental part:
as §1

For a further test, the system named is Her2Neu. The test is described as above. Type of test: cell-based. Conditions: 48 hours exposure; 3T3 line transfected with Her2 receptor kinase. As for the experimental part:
as §1

The next test concerns MDA435. Described as above. The test is classed as cell-based. Conditions: Homo sapiens, 48 hours exposure. The method, then: as §1
Another test concerns SKBR3. Described as above. Type of test: cell-based. The note with it: Homo sapiens, SK-BR-3; 48 hours exposure. The method, then: as §1
Another test deals with SW620. The test is described as above. The test is classed as cell-based. The note with it: Homo sapiens, SW-620; 48 hours exposure. As for the experimental part: as §1
A further test deals with T3, p60^c-src (Homo sapiens, UniProt P12931).
T3 construct: purchased Upstate Biotechnologies
T3 sequence (P12931 whole entry): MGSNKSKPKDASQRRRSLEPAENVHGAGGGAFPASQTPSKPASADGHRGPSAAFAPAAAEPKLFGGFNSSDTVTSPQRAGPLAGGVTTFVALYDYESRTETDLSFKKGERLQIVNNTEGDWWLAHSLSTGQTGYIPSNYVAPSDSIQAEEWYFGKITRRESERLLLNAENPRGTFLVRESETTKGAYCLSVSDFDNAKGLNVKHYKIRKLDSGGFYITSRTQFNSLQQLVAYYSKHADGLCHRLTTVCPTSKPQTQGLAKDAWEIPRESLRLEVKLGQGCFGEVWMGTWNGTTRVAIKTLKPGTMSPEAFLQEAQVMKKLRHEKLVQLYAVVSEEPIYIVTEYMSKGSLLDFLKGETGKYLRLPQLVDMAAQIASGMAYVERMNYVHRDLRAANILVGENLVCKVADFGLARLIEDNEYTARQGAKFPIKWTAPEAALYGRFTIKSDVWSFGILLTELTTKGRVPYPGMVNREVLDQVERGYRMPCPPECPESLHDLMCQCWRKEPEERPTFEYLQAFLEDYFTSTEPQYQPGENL
Description: Src kinase assay (ELISA format). Type of test: biochemical. The method, then:
Inhibitors of p60^c-src (partially purified preparation purchased from Upstate Biotechnologies) tyrosine kinase activity are analyzed in an ELISA format. The Boehringer Mannheim Tyrosine Kinase Assay Kit (Catalog number 1-534505) with a cdc2 substrate peptide containing Tyr15 is used for the assay. HRP-conjugated anti-phosphotyrosine is used to detect phosphorylated peptide via a color reaction. Conditions recommended by the manufacturer are employed.
Reaction conditions: Five microliter aliquots of each compound prepared fresh at the time of the assay are added as a solution in 10mM HEPES pH 7.5, 10% DMSO to the reaction well. Thirty-five microliters of reaction mix containing Src, buffer and peptide/bovine serum albumin mix are added to the compound wells and incubated at 30°C for 10 minutes (reaction buffer: 50mM TrisHCl pH 7.5, 10mM MgCl2, 0.1mM EGTA, 0.5mM Na3VO4). The reaction is started by addition of 10 microliters of ATP, incubated at 30°C for 1 hour, and stopped by addition of 20 microliters of 0.5M EDTA. The reaction mixture with the phosphorylated peptide was then transferred to a streptavidin-coated microtiter plate (provided in the kit) and allowed to bind for 20 minutes. […] Substrate (provided in the kit) was added and absorbance at 405nm was measured.
Activity was determined as % inhibition as calculated by the formula: (1 - Abs/Abs(max)) x 100 = % inhibition. […]
In general terms: In an ELISA, binding on a coated surface is turned into a signal by an enzyme label.

SMILES strings stand for the structures. In brackets after ≈: the same amount, converted by molar mass.

T1 sequence (P00533 669-1210): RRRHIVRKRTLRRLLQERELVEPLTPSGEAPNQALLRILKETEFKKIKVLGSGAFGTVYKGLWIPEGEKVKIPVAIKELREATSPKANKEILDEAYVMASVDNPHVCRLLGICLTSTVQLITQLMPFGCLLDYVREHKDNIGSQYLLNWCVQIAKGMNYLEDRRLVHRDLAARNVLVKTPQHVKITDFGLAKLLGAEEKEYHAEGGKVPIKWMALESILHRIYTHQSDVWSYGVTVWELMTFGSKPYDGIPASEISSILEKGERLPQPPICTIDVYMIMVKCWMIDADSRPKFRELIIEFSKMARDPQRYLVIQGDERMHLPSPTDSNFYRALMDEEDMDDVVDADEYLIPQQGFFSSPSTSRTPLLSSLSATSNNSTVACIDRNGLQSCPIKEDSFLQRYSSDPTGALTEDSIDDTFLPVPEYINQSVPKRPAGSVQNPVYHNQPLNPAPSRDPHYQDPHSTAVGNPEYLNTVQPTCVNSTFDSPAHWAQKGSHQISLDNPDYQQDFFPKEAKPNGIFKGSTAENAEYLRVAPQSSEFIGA

For the compound `CN(C)CCCCN1CCOc2cc3ncc(C#N)c(Nc4ccc(F)c(Cl)c4)c3cc21` [Example 12, 9-(3-Chloro-4-fluoroanilino)-1-[4-(dimethylamino)butyl]-2,3-dihydro-1H-[1,4]oxazino[3,2-g]quinoline-8-carbonitrile], the inhibition at 0.5 µM in test [1] is 53.5%. The same compound returned an inhibition at 10 µg/mL at c-Met of 66%. Moreover, the IC50 was 1.49 µg/mL (≈ 3.28 µM) with 3T3; 0.47 µg/mL (≈ 1.04 µM) with A431; above 5 µg/mL with Her2Neu; 2.36 µg/mL (≈ 5.2 µM) in the test on MDA435; 0.649 µg/mL (≈ 1.43 µM) in the test on SKBR3; 1.5 µg/mL (≈ 3.3 µM) in the test with SW620.

Take `CCN1CCN(CCCCN2CCOc3cc4c(Nc5ccc(Cl)cc5Cl)c(C#N)cnc4cc32)CC1` [Example 24, 9-(2,4-Dichloroanilino)-4-[4-(4-ethyl-1-piperazinyl)butyl]-3,4-dihydro-2H-[1,4]oxazino[2,3-g]quinoline-8-carbonitrile]: the IC50 against p60^c-src stood at 1010 nM.

For the compound `CN(C)CCCC(=O)N1CCOc2cc3ncc(C#N)c(Nc4ccc(F)c(Cl)c4)c3cc21` [Example 10], the inhibition at 0.5 µM in test [1] was 57.8%. For the same compound, the inhibition at 10 µg/mL against c-Met came to 50%. Further, the IC50 with 3T3 was 1.99 µg/mL (≈ 4.25 µM); in the test with A431, 1.01 µg/mL (≈ 2.15 µM); in the test with Her2Neu it was above 5 µg/mL; in the test with MDA435, 2.72 µg/mL (≈ 5.81 µM); in the test with SKBR3 it was 1.07 µg/mL (≈ 2.28 µM); in the test on SW620 it was 1.89 µg/mL (≈ 4.04 µM).

Usually inhibition stands for the relative decrease from the control value, in per cent. As usually defined, the IC50 is the midpoint of a concentration-inhibition curve. A low value points to greater potency.
